PubChem BioAssay (NCI)
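Exposure lasted 48 hours, with cells grown in 96-well plates and compounds tested at five concentrations. TGI denotes the concentration required for complete inhibition of growth.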

Legend:
Assay in all cases: growth of human tumour cells (NCI), 48 h
ACHN renal = system: ACHN renal
BT-549 breast = system: BT-549 breast
HCT-116 colon = system: HCT-116 colon
OVCAR-3 ovarian = system: OVCAR-3 ovarian
PC-3 prostate = system: PC-3 prostate
SN12C renal = system: SN12C renal
SNB-19 CNS = system: SNB-19 CNS
U251 CNS = system: U251 CNS
UACC-62 melanoma = system: UACC-62 melanoma
UO-31 renal = system: UO-31 renal

SMILES	TGI (ACHN renal) [µM]	TGI (BT-549 breast) [µM]	TGI (HCT-116 colon) [µM]	TGI (OVCAR-3 ovarian) [µM]	TGI (PC-3 prostate) [µM]	TGI (SN12C renal) [µM]	TGI (SNB-19 CNS) [µM]	TGI (U251 CNS) [µM]	TGI (UACC-62 melanoma) [µM]	TGI (UO-31 renal) [µM]
Nc1c(Cl)cc(-c2nc3ccccc3s2)cc1Cl	> 100	> 100	> 100	> 100	> 100	> 100	> 100	> 100	> 100	> 100
CCC(=O)C(CCN1CCC(N2C(=O)C(CCC#N)c3ccccc32)CC1)(c1ccccc1)c1ccccc1 (stereo not given)	43.8	26.2	17	22.9	43.2	34	32	27.8	32.6	21.4
O=C1CSC(c2ccccc2O)N1c1ccc(Oc2ccc(Cl)cc2)c(Cl)c1 (stereo not given)	94	34.9	28.6	62.4	60	39.5	65	39.5	34.3	20.7
O=c1[nH]c2nc[nH]c2c(=O)n1C1CCCCC1	> 100	> 100	> 100	> 100	> 100	> 100	> 100	> 100	> 100	> 100
